Measurements taken from patent US20100105637A1, “Drug-surfactant complexes for sustained release” (priority 2005, published 2010).
Where a name gives a salt, the structure may show the parent alone.

Test: Fractional release of drug from tablets into stirred aqueous solution, measured by uv/vis spectroscopy
Type: physicochemical
Conditions: 150 mg tablets without binders or excipients, pH 7.0 water, stirred at 100 rpm (FIG. 1)
Method: The tablets were placed into pH 7.0 water and stirred with a stirrer at 100 rpm. Fractional release was determined by uv/vis spectroscopy of the aqueous solution at 278 nm to measure the concentration of diltiazem in solution.
The tablets were placed in pH 7.0 water and stirred at 100 rpm, and fractional release was measured as above.
The drug-bile complex was pressed into tablets without any binders or excipients as in Example 1.

amount of diltiazem released at the first time point: all
SMILES: COc1ccc([C@@H]2Sc3ccccc3N(CCN(C)C)C(=O)[C@@H]2OC(C)=O)cc1 [diltiazem-HCl, Diltiazem-HCl]
